Reference: ChEMBL document CHEMBL5260801, “Structure Based Design of Non-Natural Peptidic Macrocyclic Mcl-1 Inhibitors” (ACS Med Chem Lett, 2017)

Key:
BCL2/BCL2L11 = BCL2/BCL2L11 (Homo sapiens, UniProt P10415); test: Inhibition of his-tagged human recombinant Bcl-2 expressed in Escherichia coli /human Bim measured for 60 mins by TR-FRET based LanthaScreen Eu-Kinase binding assay
[1] = biological target: T1, Induced myeloid leukemia cell differentiation protein Mcl-1 (Homo sapiens, UniProt Q07820); test: Binding affinity to N-terminal his6-tagged human recombinant Mcl-1 expressed in Escherichia coli assessed as binding constant (Koff) by SPR analysis
[2] = biological target: T1, Induced myeloid leukemia cell differentiation protein Mcl-1; test: Binding affinity to N-terminal his6-tagged human recombinant Mcl-1 expressed in Escherichia coli assessed as binding constant (Kon) by SPR analysis
[3] = biological target: T1, Induced myeloid leukemia cell differentiation protein Mcl-1; test: Binding affinity to N-terminal his6-tagged human recombinant Mcl-1 expressed in Escherichia coli assessed as dissociation constant by SPR analysis
[4] = biological target: Induced myeloid leukemia cell differentiation protein Mcl-1/Bcl-2-like protein 11 (Homo sapiens, UniProt Q07820); test: Inhibition of N-terminal GST-tagged human recombinant Mcl-1 expressed in Escherichia coli /human Bim measured for 60 mins by TR-FRET based LanthaScreen Eu-Kinase binding assay
MV4-11 = test: Induction of apoptosis in human MV4-11 cells assessed as increase in caspase 3/7 activity measured after 6 hrs by Caspase-Glo 3/7 reagent based microplate reader analysis; format: functional, cell-based; settings: MV4-11, 6 h
Bcl-xL/BAK = Bcl-xL/BAK (Homo sapiens, UniProt Q07817); test: Inhibition of N-terminal GST-tagged Bcl-xL (1 to 209 residues) expressed in Escherichia coli /human Bak measured for 60 mins by TR-FRET based LanthaScreen Eu-Kinase binding assay
Bcl-xL/BAK, sequence (Q07817 whole entry, the tested form may be a part): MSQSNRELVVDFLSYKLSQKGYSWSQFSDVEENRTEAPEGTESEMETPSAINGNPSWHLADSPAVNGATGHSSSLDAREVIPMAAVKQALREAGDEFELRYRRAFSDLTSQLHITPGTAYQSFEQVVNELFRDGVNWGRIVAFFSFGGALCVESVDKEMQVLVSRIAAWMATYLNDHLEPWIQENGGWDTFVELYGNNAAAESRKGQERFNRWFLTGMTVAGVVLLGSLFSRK
Bcl-xL/BAK, sequence (Q16611 whole entry, further chain, the tested form may be a part): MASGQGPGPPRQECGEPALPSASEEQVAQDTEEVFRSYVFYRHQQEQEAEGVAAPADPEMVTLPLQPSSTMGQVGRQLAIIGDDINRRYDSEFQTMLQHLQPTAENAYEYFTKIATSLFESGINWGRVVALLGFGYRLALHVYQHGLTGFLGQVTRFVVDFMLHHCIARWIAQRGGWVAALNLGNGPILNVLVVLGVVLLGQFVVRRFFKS

T1 sequence (Q07820 whole entry): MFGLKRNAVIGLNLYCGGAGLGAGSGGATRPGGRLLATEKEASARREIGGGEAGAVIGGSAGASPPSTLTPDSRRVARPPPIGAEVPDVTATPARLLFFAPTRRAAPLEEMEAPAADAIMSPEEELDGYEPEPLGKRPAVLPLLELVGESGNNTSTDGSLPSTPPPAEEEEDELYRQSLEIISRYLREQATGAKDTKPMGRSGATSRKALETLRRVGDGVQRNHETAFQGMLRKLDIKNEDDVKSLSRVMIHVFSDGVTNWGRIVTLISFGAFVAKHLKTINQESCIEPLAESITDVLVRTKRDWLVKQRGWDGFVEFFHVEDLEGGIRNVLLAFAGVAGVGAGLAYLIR
Induced myeloid leukemia cell differentiation protein Mcl-1/Bcl-2-like protein 11, sequence (Q07820 whole entry): as above
Induced myeloid leukemia cell differentiation protein Mcl-1/Bcl-2-like protein 11, sequence (O43521 whole entry, further chain): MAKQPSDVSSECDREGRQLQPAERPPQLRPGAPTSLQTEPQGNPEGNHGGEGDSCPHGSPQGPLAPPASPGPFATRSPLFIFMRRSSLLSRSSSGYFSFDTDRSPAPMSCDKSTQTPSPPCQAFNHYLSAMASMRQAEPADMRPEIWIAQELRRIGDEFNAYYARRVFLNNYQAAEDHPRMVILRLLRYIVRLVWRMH
BCL2/BCL2L11, sequence (P10415 whole entry): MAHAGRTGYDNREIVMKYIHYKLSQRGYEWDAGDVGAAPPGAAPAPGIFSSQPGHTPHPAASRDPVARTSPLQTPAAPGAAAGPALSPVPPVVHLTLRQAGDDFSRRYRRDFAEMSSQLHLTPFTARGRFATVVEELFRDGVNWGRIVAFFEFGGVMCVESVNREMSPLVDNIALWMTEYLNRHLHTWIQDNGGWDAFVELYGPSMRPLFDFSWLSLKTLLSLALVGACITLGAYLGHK
BCL2/BCL2L11, sequence (O43521 whole entry, further chain): as the sequence (O43521 whole entry, further chain) above

| Compound | IC50 (BCL2/BCL2L11) | K [1] | K [2] | Kd [3] | IC50 [4] | EC50 (MV4-11) | IC50 (Bcl-xL/BAK) |
| --- | --- | --- | --- | --- | --- | --- | --- |
| O=C1C[C@@H](Cc2ccc(Cl)c(Cl)c2)NC(=O)CN2C(=O)[C@H](CCc3ccccc32)NC(=O)C[C@H](Cc2ccc(Cl)cc2)NCCCN1 | > 1 µM | 0.158 s⁻¹ | 0.53 10^5/M.s | 4.48 µM | 5.21 µM |  |  |
| CN1CCCN[C@@H](Cc2ccc(S(C)(=O)=O)cc2)CC(=O)N[C@H]2CCc3ccccc3N(CC(=O)N[C@H](Cc3ccc(Cl)c(C#Cc4ccccc4)c3)CC1=O)C2=O | 1 µM |  |  |  | 0.047 µM |  |  |
| CN1CCCCCN[C@@H](Cc2ccc(Cl)cc2)CC(=O)N[C@H]2CCc3ccccc3N(CC(=O)N[C@H](Cc3ccc(Cl)c(Cl)c3)CC1=O)C2=O | 1 µM |  |  | 0.53 µM | 0.277 µM |  |  |
| CN1CCCN[C@@H](Cc2ccc(Cl)cc2)CC(=O)N[C@H]2CCc3ccccc3N(CC(=O)N[C@H](Cc3ccc(Cl)c(Cl)c3)CC1=O)C2=O | 1 µM | 0.212 s⁻¹ | 7.9 10^5/M.s | 0.37 µM | 0.155 µM |  |  |
| CCN[C@H](CC(=O)N[C@H]1CCc2ccccc2N(CC(=O)N[C@@H](CC(=O)NC)Cc2ccc(Cl)c(Cl)c2)C1=O)Cc1ccc(Cl)cc1 | 1 µM |  |  |  | 2.1 µM |  |  |
| CN1CCCN[C@@H](Cc2ccc([S+](C)[O-])cc2)CC(=O)N[C@H]2CCc3ccccc3N(CC(=O)N[C@H](Cc3ccc(Cl)c(Cl)c3)CC1=O)C2=O (stereo not given in full) | 1 µM |  |  | 0.77 µM | 0.742 µM |  |  |
| CN(C)C(=O)C[C@@H](Cc1ccc(Cl)c(Cl)c1)NC(=O)CN1C(=O)[C@@H](NC(=O)C[C@@H](N)Cc2ccc(Cl)cc2)CCc2ccccc21 | 1 µM |  |  |  | 2.25 µM |  |  |
| CNC(=O)C[C@@H](Cc1ccc(Cl)c(Cl)c1)NC(=O)CN1C(=O)[C@@H](NC(=O)C[C@@H](N)Cc2ccc(Br)cc2)CCc2ccccc21 | 1 µM |  |  |  | 1.49 µM |  |  |
| CN1CCCN[C@@H](Cc2ccc(S(C)(=O)=O)cc2)CC(=O)N[C@H]2CCc3ccccc3N(CC(=O)N[C@H](Cc3ccc(Cl)c(/C=C/c4ccccc4)c3)CC1=O)C2=O | > 1 µM |  |  | 1.2 µM | 0.375 µM |  |  |
| CN1CCCN[C@@H](Cc2ccc(S(C)(=O)=O)cc2)CC(=O)N[C@H]2CCc3ccccc3N(CC(=O)N[C@H](Cc3ccc(Cl)c(-c4cc5ccccc5o4)c3)CC1=O)C2=O | 1 µM | 0.336 s⁻¹ | 9.5 10^5/M.s | 0.47 µM | 0.116 µM |  |  |
| CNC(=O)C[C@@H](Cc1cccc(Cl)c1)NC(=O)CN1C(=O)[C@@H](NC(=O)C[C@@H](N)Cc2ccc(Cl)cc2)CCc2ccccc21 | > 1 µM |  |  |  | 57.3 µM |  |  |
| CNC(=O)C[C@@H](Cc1ccc(Cl)cc1)NC(=O)CN1C(=O)[C@@H](NC(=O)C[C@@H](N)Cc2ccccc2)CCc2ccccc21 | 1 µM |  |  |  | 19.5 µM |  |  |
| CN1CCCN[C@@H](Cc2ccc(S(C)(=N)=O)cc2)CC(=O)N[C@H]2CCc3ccccc3N(CC(=O)N[C@H](Cc3ccc(Cl)c(Cl)c3)CC1=O)C2=O (stereo not given in full) | 1 µM | 0.476 s⁻¹ | 10.2 10^5/M.s | 0.42 µM | 0.51 µM |  |  |
| CN1CCCN[C@@H](Cc2ccc(S(C)(=O)=O)cc2)CC(=O)N[C@H]2CCc3ccccc3N(CC(=O)N[C@H](Cc3ccc(Cl)c(Cl)c3)CC1=O)C2=O | 1 µM |  |  | 0.1 µM | 0.116 µM |  |  |
| CN1CCCN[C@@H](Cc2ccc(S(N)(=O)=O)cc2)CC(=O)N[C@H]2CCc3ccccc3N(CC(=O)N[C@H](Cc3ccc(Cl)c(Cl)c3)CC1=O)C2=O | 1 µM |  |  | 0.72 µM | 0.558 µM |  |  |
| CNC(=O)C[C@@H](Cc1ccc(Cl)c(CCc2ccccc2)c1)NC(=O)CN1C(=O)[C@@H](NC(=O)C[C@@H](N)Cc2ccc(S(C)(=O)=O)cc2)CCc2ccccc21 | 1 µM |  |  |  | 0.133 µM |  |  |
| C[C@H]1CCN(C)C(=O)C[C@@H](Cc2ccc(Cl)c(Cl)c2)NC(=O)CN2C(=O)[C@H](CCc3ccccc32)NC(=O)C[C@H](Cc2ccc(Cl)cc2)N1 | 1 µM |  |  | 0.12 µM | 0.048 µM |  |  |
| CNC(=O)C[C@@H](Cc1ccc(Cl)c(CCc2ccccc2)c1)NC(=O)CN1C(=O)[C@@H](NC(=O)C[C@@H](N)Cc2ccc(Cl)cc2)CCc2ccccc21 | 1 µM |  |  |  | 0.193 µM |  |  |
| CN1CCCN[C@@H](Cc2ccc(Cl)cc2)CC(=O)N[C@H]2CCc3ccccc3N(CC(=O)N[C@H](Cc3ccc(Cl)c(-c4cc5ccccc5o4)c3)CC1=O)C2=O | > 1 µM | 0.314 s⁻¹ | 1.6 10^5/M.s | 3.6 µM | 1.05 µM |  |  |
| CN1CCCN[C@@H](Cc2ccc(S(C)(=O)=O)cc2)CC(=O)N[C@H]2CCc3ccccc3N(CC(=O)N[C@H](Cc3ccc(Cl)c(-c4ccc5ccccc5c4)c3)CC1=O)C2=O | 1 µM | 0.213 s⁻¹ | 6.6 10^5/M.s | 0.29 µM | 0.112 µM |  |  |
| CNC(=O)C[C@@H](Cc1ccc(Cl)c(-c2ccc(Cl)c(C)c2)c1)NC(=O)CN1C(=O)[C@@H](NC(=O)C[C@@H](N)Cc2ccc(Cl)cc2)CCc2ccccc21 | > 1 µM |  |  |  | 1.93 µM |  |  |
| CN1CCCCN[C@@H](Cc2ccc(Cl)cc2)CC(=O)N[C@H]2CCc3ccccc3N(CC(=O)N[C@H](Cc3ccc(Cl)c(Cl)c3)CC1=O)C2=O | 1 µM | 0.082 s⁻¹ | 2.9 10^5/M.s | 0.29 µM | 0.122 µM |  |  |
| CNC(=O)C[C@@H](Cc1ccc(Cl)cc1)NC(=O)CN1C(=O)[C@@H](NC(=O)C[C@@H](N)Cc2ccc(Cl)cc2)CCc2ccccc21 | 1 µM |  |  |  | 12.5 µM |  |  |
| CNC(=O)C[C@@H](Cc1ccc(Cl)c(Cc2ccccc2)c1)NC(=O)CN1C(=O)[C@@H](NC(=O)C[C@@H](N)Cc2ccc(Cl)cc2)CCc2ccccc21 | 1 µM |  |  |  | 9.21 µM |  |  |
| C[C@@H]1CCN(C)C(=O)C[C@@H](Cc2ccc(Cl)c(Cl)c2)NC(=O)CN2C(=O)[C@H](CCc3ccccc32)NC(=O)C[C@H](Cc2ccc(Cl)cc2)N1 | 1 µM |  |  | 3.54 µM | 0.739 µM |  |  |
| CN1CCCN[C@@H](Cc2ccc(Cl)cc2)CC(=O)N[C@H]2CCc3ccccc3N(CC(=O)N[C@H](Cc3ccc(Cl)c(/C=C/c4ccccc4)c3)CC1=O)C2=O | 1 µM |  |  | > 10 µM | 2.23 µM |  |  |
| CNC(=O)C[C@@H](Cc1ccc(Cl)c(Cl)c1)NC(=O)CN1C(=O)[C@@H](NC(=O)C[C@@H](N)Cc2ccc(Cl)cc2)CCc2ccccc21 | 1 µM |  |  |  | 1.99 µM |  |  |
| CN1CCCN[C@@H](Cc2ccc(S(C)(=O)=O)cc2)CC(=O)N[C@H]2CCc3ccccc3N(CC(=O)N[C@H](Cc3ccc(Cl)c(CCc4ccccc4)c3)CC1=O)C2=O | 5.5 µM | 0.066 s⁻¹ | 33 10^5/M.s | 0.02 µM | < 0.003 µM | 3.78 µM | > 99 µM |
| CN1CCCN[C@@H](Cc2ccc(Cl)cc2)CC(=O)N[C@H]2CCc3ccccc3N(CC(=O)N[C@H](Cc3ccc(Cl)c(CCc4ccccc4)c3)CC1=O)C2=O | 1 µM | 0.073 s⁻¹ | 3.7 10^5/M.s | 0.34 µM | 0.045 µM |  |  |
